Read-outs that look alike come from different tables or passages of the source. Starred links: 1 amine or outer side, 2 acyl side, 3 side chain; linkers in the order of their positions; H or OH if unused. Non-standard residues stand in square brackets, D forms with d. Residues, ends and D or L forms follow the SMILES beside them. *: point of attachment. Exatecan = CC[C@@]1(O)C(=O)OCc2c1cc1n(c2=O)Cc2c-1nc1cc(F)c(C)c3c1c2[C@@H](N*)CC3; X1 = O=C(O)CNC[C@@H](C(=O)*)N1C(=O)C=CC1=O; X2 = C[C@H](OCN[*:1])C(=O)[*:2]
Legend:
[1] = system: Human non-small cell lung adenocarcinoma cell H1975; assay: In vitro inhibitory effect of Compound 5A, MTS; assay type: cell-based
Experimental: (§1) The UV light of the biosafety cabinet was turned on 30 min in advance, and then the ventilation system was enabled for 3 min. The growth medium, the detection medium, D-PBS and trypsin were preheated in a 37° C. constant-temperature water bath, and then had surface disinfected with alcohol and then placed in the biosafety cabinet. The cells with a confluence rate of about 80% were placed in the biosafety cabinet, the old culture medium was removed, the cells were rinsed with D-PBS, and the D-PBS was then discarded. The cells were digested with trypsin for 2-3 min, then neutralized with the growth medium and centrifuged at 1200 rpm for 3 min, and the supernatant was removed. The cell solution was mixed with 4 mL of test medium, and 100 μL of cell solution was taken for counting (where 50 μL of cell solution was well mixed with 50 μL of Trypan Blue Stain and then counted). According to a pre-optimized cell plating density, the cells were plated in a 96-well plate at 80 ul/well. […] After 24 hours of plating, diluted antibodies were added with 20 uL per well and control was set. Only 20 μL of test medium was added to cells in column 11. Two duplicate wells were set at each concentration. The cells were then well mixed on the cell vortex shaker at 550 rpm for 3 min.
(§2) 240 μL of test medium was added to the subsequent columns 2 to 10. 60 μL of the well mixed test solution was taken from the first column and added to the second column, and the cell solution was mixed up and down with a pipette for 10 times, and then the pipette tip was discarded. The same operation was performed for other seven concentrations one by one.
(§3) After 4 days, the MTS reagent was taken out, thawed at room temperature in the dark, and vortex mixed thoroughly. In the biosafety cabinet, 20 μL of CellTiter One Solution Reagen MTS reagent was added per 100 μL cell culture volume along the side wall of each well, and the plate surface was gently tapped to well mix the MTS solution. The cells were incubated for 2 h in the dark in an incubator. After the reaction, the 96-well plate was taken out for testing the OD490 nm absorption on an elisa plate, and the test data were recorded, organized, analyzed and stored.

[2] = system: human breast cancer cell MDA-MB-361; assay: In vitro inhibitory effect of Compound 5A, MTS; assay type: cell-based
Experimental: as §1, §2, §3

[3] = system: human breast cancer cell SK-BR-3; assay: In vitro inhibitory effect of Compound 5A, MTS; assay type: cell-based
Experimental: as §1, §2, §3

[4] = system: human breast cancer cell ZR-75-1; assay: In vitro inhibitory effect of Compound 5A, MTS; assay type: cell-based
Experimental: as §1, §2, §3

[5] = system: human epidermal cancer cell A431 + human colon cancer cell SW620; assay: In vitro inhibitory effect of Compound 5A, MTS; assay type: cell-based
Experimental: as §1, §2, §3

[6] = system: human epidermal cancer cell A431; assay: In vitro inhibitory effect of Compound 5A, MTS; assay type: cell-based
Experimental: as §1, §2, §3

[7] = system: human gastric cancer cell NCI-N87; assay: In vitro inhibitory effect of Compound 5A, MTS; assay type: cell-based
Experimental: as §1, §2, §3

[8] = system: human leukemia cell JJN-3; assay: In vitro inhibitory effect of Compound 5A, MTS; assay type: cell-based
Experimental: as §1, §2, §3

[9] = system: human multiple myeloma cell RPMI8226; assay: In vitro inhibitory effect of Compound 5A, MTS; assay type: cell-based
Experimental: as §1, §2, §3

[10] = system: human non-small cell lung cancer cell HCC827; assay: In vitro inhibitory effect of Compound 5A, MTS; assay type: cell-based
Experimental: as §1, §2, §3

[11] = system: human orthotopic pancreatic adenocarcinoma cell BXPC-3; assay: In vitro inhibitory effect of Compound 5A, MTS; assay type: cell-based
Experimental: as §1, §2, §3

[12] = system: human plasma cell leukemia cell H929; assay: In vitro inhibitory effect of Compound 5A, MTS; assay type: cell-based
Experimental: as §1, §2, §3

Fadu = assay: In vitro efficacy of naked antibodies and Compound d3, d38, d39 and d44, MTS; assay type: cell-based; conditions: Homo sapiens, 1 uM starting concentration
Experimental: (§4) In a 96-well plate, cells were plated at an appropriate cell density. After 24 h, the drugs were added. After 24 h, the drugs were diluted with the test medium (1 uM starting concentration, 5-fold dilution, 9 concentrations, test medium was added in the tenth column as blank control). The diluted drugs were added to the corresponding cell wells and then shaken for 3 min with a microplate shaker (model: MX100-4A) at a shaking speed of 550 rpm/min. After shaking, the cells were incubated in a carbon dioxide incubator for […].
(§5) After 4 days, the MTS reagent was taken out, thawed at room temperature in the dark, and vortex mixed thoroughly. […] The cells were incubated for 2 h in the dark in an incubator. After the reaction, the 96-well plate was taken out for testing the OD490 nm absorption on an elisa plate, and the test data were recorded, organized, analyzed and stored.

HCC827 = assay: as above; assay type: cell-based; conditions: Homo sapiens, 1 uM starting concentration
Experimental: as §4, §5

N87 = assay: as above; assay type: cell-based; conditions: Homo sapiens, 1 uM starting concentration
Experimental: as §4, §5

SW620 + A431 = assay: as above; assay type: cell-based; conditions: Homo sapiens, 1 uM starting concentration
Experimental: as §4, §5

SW620 = assay: as above; assay type: cell-based; conditions: Homo sapiens, SW-620, 1 uM starting concentration
Experimental: as §4, §5

[13] = Percentage of monomer of ADCs by SEC-HPLC; assay type: physicochemical
Experimental: • Chromatography column: Biocore SEC-300 5 μm, 4.6×300 mm; • Manufacturer: NanoChrom, Product code: B213-050030-04630S; • Mobile phase: 50 mM PB+300 mM NaCl+200 mM Arg+5% IPA, pH=6.5;
• Chromatography column: ACQUITY UPLC Protein SEC 4.6×150 mm […] • Manufacturer: waters Product code: 186005225 • Mobile phase: 50 mM PB+300 mM NaCl+200 mM Arg+5% IPA, pH=6.5

[14] = Experimental: The mixture of an ADC and IgG-depleted plasma were formulated with the final concentration of ADC being 0.6 mg/mL. The plasma mixture was incubated in a water bath box in a 37° C. incubator. The incubation time was set to 0 days, 3 days, and 7 days. At the same time, the unincubated plasma control was set. The incubated sample was purified and extracted and then tested for the DAR to reflect the stability of the ADC in plasma.
[15] = target: T1, recombinant TROP2-His*6 antigen (Homo sapiens, UniProt P09758); assay: Double-antigen sandwich ELISA, relative affinity to TROP2; assay type: binding; conditions: OD450 nm, EC50 compared
T1 construct: His*6
T1 sequence (P09758 27-323): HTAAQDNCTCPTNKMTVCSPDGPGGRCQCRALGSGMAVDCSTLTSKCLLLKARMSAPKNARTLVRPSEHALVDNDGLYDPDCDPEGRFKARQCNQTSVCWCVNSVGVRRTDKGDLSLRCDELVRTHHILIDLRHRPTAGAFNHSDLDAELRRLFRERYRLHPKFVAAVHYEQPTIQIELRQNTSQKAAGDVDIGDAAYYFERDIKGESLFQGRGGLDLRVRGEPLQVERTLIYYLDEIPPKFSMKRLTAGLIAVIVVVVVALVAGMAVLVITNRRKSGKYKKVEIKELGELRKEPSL
Experimental: The recombinant TROP2-His*6 antigen was coated on the plate and then blocked with 1% bovine serum albumin; hu4D3 and the corresponding ADC and TINA1 and the corresponding ADC were diluted respectively, and then serially diluted 3 folds at a starting concentration of 2000 ng/mL respectively, for a total of 11 concentrations. After the sample was incubated on the coated elisa plate for a period of time, the secondary antibody labeled by goat anti-human Fc-HRP was added for incubation. Finally, TMB color development was performed and terminated by sulfuric acid solution, and the absorption value at 450 nm was detected on an elisa plate. The results are plotted on concentration at OD450 nm.

[16] = system: human tumor cell line (BxPC-3); assay: In vitro drug efficacy of antibodies and ADCs, MTS cell viability; assay type: cell-based; conditions: BxPC-3, 5 days
Experimental: In the present invention, a human tumor cell line (BxPC-3) was used as an experimental model to evaluate the in vitro efficacy of ADCs. A certain number of tumor cells were inoculated into a 96-well plate, and gradient dilutions of the test antibody and the corresponding ADC were added to the cells, the cells were treated for 5 days, cell viability was detected by using MTS, and IC50 was calculated to evaluate the in vitro inhibitory effect of the test antibody and ADCs on the tumor cell line. The cells were treated for 5 days with the antibody drugs having initial concentration of 500 nM, diluted 7 folds, with a total of 8 concentration points. Finally, the cell survival was calculated as: survival rate=(experimental group-blank group)/(control group-blank group)×100%. Then, by using Graph Pad Prism, the curve was fitted and the half inhibitory concentration (IC50) was calculated.

[17] = humans; cited from earlier work
[18] = mice; cited from earlier work
[19] = in vivo; cited from earlier work

## CC[C@@]1(O)C(=O)OCc2c1cc1n(c2=O)Cc2c-1nc1cc(F)c(C)c3c1c2[C@@H](NC(=O)[C@H](C)OCNC(=O)CNC(=O)[C@H](Cc1ccccc1)NC(=O)CNC(=O)CNC(=O)[C@H](CNCC(=O)O)N1C(=O)C=CC1=O)CC3 [Compound 5A] (X1-GGFG[X2]-Exatecan)
[1]; H1975
  Efficacy %: 76.78%
[1]; Homo sapiens, NCI-H1975, 96 h, H1975, 4 days, MTS
  IC50: 970 nM
[2]; Homo sapiens, 96 h, MDA-MB-361, 4 days, MTS
  IC50: 572 nM
[2]; MDA-MB-361
  Efficacy %: 62.34%
[3]; Homo sapiens, 96 h, SK-BR-3, 4 days, MTS
  IC50: 732 nM
[3]; SK-BR-3
  Efficacy %: 70.9%
[4]; Homo sapiens, 96 h, ZR-75-1, 4 days, MTS
  IC50: 558 nM
[4]; ZR-75-1
  Efficacy %: 54.79%
[5]; A431 + SW620
  Efficacy %: 68.26%
[5]; Homo sapiens, 96 h, A431 + SW620, 4 days, MTS
  IC50: 605 nM
[6]; A431
  Efficacy %: 84.97%
[6]; Homo sapiens, A-431, 96 h, A431, 4 days, MTS
  IC50: 439 nM
[7]; Homo sapiens, 96 h, NCI-N87, 4 days, MTS
  IC50: 1020 nM
[7]; NCI-N87
  Efficacy %: 63.93%
[8]; Homo sapiens, 96 h, JJN-3, 4 days, MTS
  IC50: 36.1 nM
[8]; JJN-3
  Efficacy %: 80.59%
[9]; Homo sapiens, RPMI-8226, 96 h, RPMI8226, 4 days, MTS
  IC50: 147 nM
[9]; RPMI8226
  Efficacy %: 93.61%
[10]; HCC827
  Efficacy %: 80.57%
[10]; Homo sapiens, 96 h, HCC827, 4 days, MTS
  IC50: 656 nM
[11]; BxPC-3
  Efficacy %: 64.4%
[11]; Homo sapiens, 96 h, BxPC-3, 4 days, MTS
  IC50: 320 nM
[12]; H929
  Efficacy %: 99.03%
[12]; Homo sapiens, NCI-H929, 96 h, H929, 4 days, MTS
  IC50: 23.9 nM

## CC[C@@]1(O)C(=O)OCc2c1cc1n(c2=O)Cc2c-1nc1cc(F)c(C)c3c1c2[C@@H](NC(=O)[C@H](C)O)CC3 [d3]
Fadu
  IC50: 0.531 nM
HCC827
  IC50: 0.778 nM
N87
  IC50: 1.61 nM
SW620 + A431
  IC50: 2.81 nM
SW620
  IC50: 0.543 nM

## CC[C@@]1(O)C(=O)OCc2c1cc1n(c2=O)Cc2c-1nc1cc(F)c(C)c3c1c2[C@H](NC(=O)[C@@H](O)C1CC1)CC3 [d39]
Fadu
  IC50: 0.11 nM
HCC827
  IC50: 0.092 nM
N87
  IC50: 0.466 nM
SW620 + A431
  IC50: 0.468 nM
SW620
  IC50: < 0.005 nM

## CC[C@@]1(O)C(=O)OCc2c1cc1n(c2=O)Cc2c-1nc1cc(F)c(C)c3c1c2[C@H](NC(=O)C1(CO)CCC1)CC3 [d44]
Fadu
  IC50: 0.029 nM
HCC827
  IC50: 0.038 nM
N87
  IC50: 0.197 nM
SW620 + A431
  IC50: 0.182 nM
SW620
  IC50: 0.014 nM

## DS1062a (DAR = 4)
[13]
  Aggregate %: 3.431%
  Degradation %: 0.108%
  Monomer %: 96.461%
[14]; ADC 0.6 mg/mL in IgG-depleted plasma, 37° C., 0 days
  DAR Incubated in plasma for 0 days: 4.21
[14]; ADC 0.6 mg/mL in IgG-depleted plasma, 37° C., 3 days
  DAR Incubated in plasma for 3 days: 3.75
[14]; ADC 0.6 mg/mL in IgG-depleted plasma, 37° C., 7 days
  DAR Incubated in plasma for 7 days: 3.30
[14]; unincubated control
  DAR Unincubated: 4.13

## DS1062a [reference compound]
[14]; change in DAR during incubation in plasma
  plasma stability (in words): poor plasma stability
[15]
  affinity for antigen TROP2 compared with the corresponding antibody: maintains the same affinity
[16]
  IC50: 308 nM

## IMMU-132
[17]
  elimination half-life: about 11 h
[18]
  elimination half-life: about 11 h
[19]
  mean residence time: about 15.4 h

— patent US20250205349A1, “ANTI-HUMAN TROP2 ANTIBODY-CAMPTOTHECIN DRUG CONJUGATE AND MEDICAL USE THEREOF” (SYSTIMMUNE, INC., priority 2021, published 2025)
